Measurements: patent US4472433A, “Phenoxyphenyl acetic acids and their medicinal use” (Fujisawa Pharmaceutical Co., Ltd., priority 1978, dated 1984)

Tests used:
writhing syndrome = assay: Acetic acid-induced writhing syndrome; format: in vivo, male ddy strain mice; settings: oral
Experimental: Male ddy strain mice, weighing 24.0-32.0 g, were used. Each dose group consisted of 10 animals. Writhing syndrome was produced by an intraperitoneal injection of 20 ml/kg of 0.6% acetic acid. […] The drug were given orally 60 minutes before acetic acid. The frequency of writhing syndrome for 10 minutes in the treated animals was compared with that in the control. Control animals received the vehicle.
The test substances, the compound obtained in the Example 5-(2) was suspended in 0.5% methylcellulose.
ED50 value was calculated according to the Litchfield-Wilcoxon's method with a computer program.

[1] = Rectal temperature in saline-treated rats; format: in vivo, male SD strain rats
Experimental: (§1) Male SD strain rats aged 6 weeks, weighing 164-235 g, were divided into 4 groups i.e. A, B, A' and B' of 10 animals each and were treated as shown below:
(§2) Group A saline 0.5% methylcellulose
(§3) Group B 5% Brewer's yeast
(§4) Group A' saline Test substance
(§5) Group B' 5% Brewer's yeast
(§6) The test substance or 0.5%MC were given orally to rats 4 hr after subcutaneous injection of 5% Brewer's yeast or saline. The rectal temperature was measured with a thermister probe inserted about 4.5-5.0 cm into the rectum 4 hr before, and 1 and 2 hr after the injection of test substance.
(§7) All experiments were performed at an ambient temperature of 22.0°-22.5° C.
(§8) Test substance, the compound obtained in the Example 5-(2) was dissolved in 0.5%MC at a dose of 10 mg/kg and 100 mg/kg, and also suspended in 0.5%MC at a dose of 320 mg/kg, and Brewer's yeast was suspended in saline.
(§9) Statistics: Calculation of ED50 value according to the Litchfield-Wilcoxon's method was performed with a computer program. Statistic analysis of difference between the control and treated groups according to the Student's t-test or Cochran-Cox test was performed with a computer program.

erythema = assay: UV-induced erythema test (number of rats estimated as effective); format: in vivo, male Hartley rats; settings: oral, ten rats per group, half 1 h before and half just after UV radiation, scored 2 h later
Experimental: Ten male 5 week old Hartley rats, each weighing about 350 g. were used per group. The backs of each animal were depilated 24 hours before the test. An adhesive tape with 3 small holes of 9 mm. diameter was placed on the depilated skin and then the animal was exposed to ultra-violet radiation from an ultra-violet lamp (500 W, manufactured by Engelhard Hanovia Inc.) at a distance of 13 cm. for 80 seconds. Two hours later, the degree of erythema was estimated on the basis of the following scores:
1.0: erythema with clear border,
0.5: erythema with unclear border,
The drugs were regarded as being effective when the total of 3 points was below 1.5.
Each dosage of the test compound was administered orally in a suspension form in 20 ml. of 0.5% methyl cellosolve aqueous solution. Half of the test sample was administered one hour before the radiation and the remaining half of the test solution was administered just after radiation.

[2] = tested on: Brewer's yeast-induced hyperthermia; assay: Brewer's yeast-induced hyperthermia (antipyretic effect); format: in vivo, male SD strain rats; settings: oral; for ED50: Rattus norvegicus
Experimental: as §1, §2, §3, §4, §5, §6
The antipyretic effect (%) of test substance on the Brewer's yeast-induced hyperthermia at 1 and 2 hr after the injection of test substance was calculated from the mean rectal temperature (rectal temp.) in each group by the following formula: [formula]
as §7, §8, §9

[3] = tested on: contraction induced by arachidonic acid; assay: Arachidonic acid-induced contraction of isolated stomach fundus strip; set-up: species or system Sprague-Dawley rats; settings: rat stomach fundus strip, arachidonic acid 1.0×10^-5 g/ml as spasmogen, compound added 15 minutes before
Experimental: The stomach was removed from Sprague-Dawley rats, weighing about 180 g., after the animals were fasted overnight. A strip of stomach fundus was suspended under initial tension of 0.6 g. in a 10 ml. organ bath containing Tyrode solution. Arachidonic acid (1.0×10^-5 g/ml.) was employed as the spasmogen. Several doses of the test compound were added to the individual bath fluid 15 minutes before the addition of arachidonic acid. The value of contraction induced by arachidonic acid was measured and plotted dose-activity curve. ED50 value of each test compound was obtained by interpolation from the dose-activity curve.

Nc1c(CC(=O)[O-])cccc1Oc1ccccc1Cl.[Na+] [Example 5 - (2), sodium 2-[2-amino-3-(2-chlorophenoxy)phenyl]acetate]
ED50 (writhing syndrome; Mus musculus, 60 minutes before acetic acid, writhing 3 to 13 minutes after acetic acid, read-out: ED50 value (inhibition of writhing)): 19.6 mg/kg | effect on the writhing syndrome caused by acetic acid (writhing syndrome): dose-related inhibiting effects on the writhing syndrome | rectal temperature change ([1]; 10 mg/kg, 1 hr, slight but significant): produced a rise | rectal temperature change ([1]; 100 mg/kg, 2 hr): significant fall of the rectal temperature | rectal temperature change ([1]; 320 mg/kg, 1 hr, slight but significant): produced a fall of the rectal temperature | rectal temperature change ([1]; 320 mg/kg, 2 hr): significant fall of the rectal temperature | Number of rats estimated as effective (erythema; 2 mg/kg): 8 rats | Number of rats estimated as effective (erythema; 10 mg/kg): 10 rats | ED50 ([2]; 1 hr after administration): 37.3 mg/kg | ED50 ([2]; 2 hr after administration): 12.8 mg/kg | antipyretic effect on the Brewer's yeast-induced hyperthermia ([2]; all doses (10, 100, 320 mg/kg), 1 and 2 hr after administration): showed the antipyretic effect on the Brewer's yeast-induced hyperthermia | ED50 [3]: 1.3 µg/mL

Nc1c(CC(=O)[O-])cccc1Oc1c(Cl)cccc1Cl.[Na+] [Example 19, sodium 2-[2-amino-3-(2,6-dichlorophenoxy)phenyl]acetate]
ED50 [3]: 2.4 µg/mL

Nc1c(CC(=O)[O-])cccc1Oc1cccc(Cl)c1.[Na+] [Example 4 - (2), sodium 2-[2-amino-3-(3-chlorophenoxy)phenyl]acetate]
ED50 [3]: 1.7 µg/mL

Nc1c(CC(=O)[O-])cccc1Oc1cc(Cl)cc(Cl)c1.[Na+] [Example 7 - (2), sodium 2-[2-amino-3-(3,5-dichlorophenoxy)phenyl]acetate]
ED50 [3]: 0.16 µg/mL

Cc1ccccc1Oc1cccc(CC(=O)[O-])c1N.[Na+] [Example 10 - (2), sodium 2-[2-amino-3-(o-tolyloxy)phenyl]acetate]
Number of rats estimated as effective (erythema; 2 mg/kg): 5 rats | Number of rats estimated as effective (erythema; 10 mg/kg): 10 rats | ED50 [3]: 2.5 µg/mL

Nc1c(CC(=O)[O-])cccc1Oc1ccccc1F.[Na+] [Example 2 - (2), sodium 2-[2-amino-3-(2-fluorophenoxy)phenyl]acetate]
Number of rats estimated as effective (erythema; 2 mg/kg): 9 rats | Number of rats estimated as effective (erythema; 10 mg/kg): 10 rats | ED50 [3]: 1.6 µg/mL
